Several values for one entry are separate records, joined by “and”; a condition that tells them apart may be missing. Equal entries are not always repeated. Where two headings read alike, the source gives them in different places.
What was measured:
STAT3 = STAT3 reporter GloResponse SIE-luc2P/HEK293 assay, IL-6 induction; type: cell-based;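 also: SIE-luc2P/HEK293 reporter cells stimulated with IL-6 at 40 ng/mL (EC80) after pretreatment, luciferase luminescence (RLU) read the following day, triplicate wells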
PANC-1 cells = test: MTT proliferation assay, PANC-1; conditions: for Abs: 72 hours
SJSA-1 cells = test: MTT proliferation assay, SJSA-1; type: cell-based, human; conditions: SJSA-1; 72 hours; 50 μg/ml
MDA-MB-231 cells = test: MTT proliferation assay, MDA-MB-231; type: cell-based, human; conditions: for Mean: mean absorbance;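 as to all read-outs here: proliferation of cultured human cancer cells read by MTT, with treated groups compared against a vehicle control group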
[1] = 24 Hour Treatment Prior to IL6 Induction, higher conc.: VHH13 55.8 μg/mL, VHH14 84.3 μg/mL, BB1608 4.16 μM, VHH69 50.5 μg/mL
[2] = 24 Hour Treatment Prior to IL6 Induction, lower conc.: VHH13, VHH14, VHH69 10 μg/mL, BB1608 2 μM
[3] = 48 Hour Treatment Prior to IL6 Induction, higher conc.: VHH13 55.8 μg/mL, VHH14 84.3 μg/mL, BB1608 4.16 μM, VHH69 50.5 μg/mL
[4] = 48 Hour Treatment Prior to IL6 Induction, lower conc.: VHH13, VHH14, VHH69 10 μg/mL, BB1608 2 μM
[5] = Homo sapiens, PANC-1, 72 h, read-out: % Inhibition, Growth Inhibition of PANC-1 Cells

## CC(=O)c1cc2c(o1)C(=O)c1ccccc1C2=O [BBI608, napabucasin, reference compound]
STAT3; [1]
  Average RLU: 33 RLU
  Luminescence (replicate wells): 41 RLU and 28 RLU and 31 RLU
STAT3; [2]
  Fold-Induction RLU/RLU of −IL6: 0
  Luminescence (replicate wells): 41 RLU and 33 RLU and 39 RLU
STAT3; 24 and 48 hours treatment, VHH13 and VHH69 at highest concentration, VHH14 at both concentrations
  effect on IL-6 induction of the STAT3 reporter: Inhibition of IL-6
STAT3; [3]
  Fold-Induction RLU/RLU of −IL6: 0
  Luminescence (replicate wells): 32 RLU and 25 RLU and 31 RLU
STAT3; [4]
  Average RLU: 33 RLU
  Luminescence (replicate wells): 31 RLU and 26 RLU and 42 RLU

## Nc1ccn([C@@H]2O[C@H](CO)[C@@H](O)C2(F)F)c(=O)n1 [Gemcitabine]
PANC-1 cells; Gemcitabine Hydrochloride (Biovision #1759) 0.020 μM alone
  Abs: 1.631
PANC-1 cells; Gemcitabine Hydrochloride (Biovision #1759) 0.039 μM alone
  Abs: 1.550
PANC-1 cells; Gemcitabine Hydrochloride (Biovision #1759) 0.313 μM alone
  Abs: 1.084
PANC-1 cells; Gemcitabine Hydrochloride (Biovision #1759) 0.625 μM alone
  Abs: 1.001
PANC-1 cells; Gemcitabine Hydrochloride (Biovision #1759) 5 μM alone
  Abs: 0.654
PANC-1 cells; Gemcitabine Hydrochloride (Biovision #1759) 10 μM alone
  Abs: 0.576
PANC-1 cells; Homo sapiens, PANC-1
  inhibition at 0.02 µM: 0%
  inhibition at 0.039 µM: 0%
  inhibition at 0.313 µM: 5%
  inhibition at 0.625 µM: 0%
  inhibition at 5 µM: 40%
  inhibition at 10 µM: 48%
PANC-1 cells; [5]
  inhibition at 5 µM: 38%
  inhibition at 10 µM: 35%
PANC-1 cells; Homo sapiens, PANC-1, 72 h, read-out: growth inhibition of PANC-1 cells
  inhibition at 10 µM: 48%

## Curirx P04: SBT-100 produced by Curirx, P04 buffer sample
SJSA-1 cells
  growth inhibition: significant growth inhibition

## MPT B1 (pH 5.0): SBT-100 produced by Microprotein Technologies
MDA-MB-231 cells; MDA-MB-231, 50 μg/ml
  MTT absorbance, single replicates: 0.924 and 0.741 and 0.834 and 0.749 and 0.771 and 0.77
  Mean: 0.798
MDA-MB-231 cells; MDA-MB-231, 100 μg/ml
  MTT absorbance, single replicates: 0.65 and 0.656 and 0.624
  Mean: 0.643
